Source: publication PMC9516332 (Frontiers in Oncology, 2022)
Like-named read-outs stand apart in the source and are kept apart here.

Tests used:
Test in all cases: Kinase panel profiling at 1 µmol/L (MSA or IMAP), percentage inhibition
Format in all cases: biochemical
[1] = molecular target: panel of 255 wild-type kinases (Homo sapiens, UniProt P04626); settings: read-out: %-inhibition at 1 µmol/L, HER2
[2] = molecular target: panel of 255 wild-type kinases (Homo sapiens, UniProt P23458); settings: read-out: %-inhibition at 1 µmol/L, JAK1
[3] = molecular target: T1, panel of 255 wild-type kinases (Homo sapiens, UniProt P42680); settings: read-out: %-inhibition at 1 µmol/L, TEC
T1 sequence (P42680 1-631): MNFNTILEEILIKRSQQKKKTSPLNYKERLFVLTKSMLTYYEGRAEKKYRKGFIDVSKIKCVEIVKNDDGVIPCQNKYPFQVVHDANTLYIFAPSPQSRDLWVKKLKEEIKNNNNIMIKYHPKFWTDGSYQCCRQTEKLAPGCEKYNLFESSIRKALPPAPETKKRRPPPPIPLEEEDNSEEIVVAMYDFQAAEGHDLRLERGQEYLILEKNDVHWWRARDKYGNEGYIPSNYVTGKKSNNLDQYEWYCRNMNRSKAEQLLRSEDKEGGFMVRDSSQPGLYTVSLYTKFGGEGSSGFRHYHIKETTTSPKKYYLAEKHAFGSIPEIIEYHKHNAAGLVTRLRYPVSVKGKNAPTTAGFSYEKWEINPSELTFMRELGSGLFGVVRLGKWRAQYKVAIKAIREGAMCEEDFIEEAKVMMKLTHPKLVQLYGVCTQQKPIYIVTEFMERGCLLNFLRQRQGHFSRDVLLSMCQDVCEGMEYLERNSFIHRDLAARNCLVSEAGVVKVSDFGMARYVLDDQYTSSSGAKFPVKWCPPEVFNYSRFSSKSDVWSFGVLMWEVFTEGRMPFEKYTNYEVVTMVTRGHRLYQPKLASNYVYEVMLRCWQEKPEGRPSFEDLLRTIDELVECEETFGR

[4] = molecular target: T2, panel of 255 wild-type kinases (Homo sapiens, UniProt P15735); settings: read-out: %-inhibition at 1 µmol/L, PHKG2
T2 sequence (P15735 1-406): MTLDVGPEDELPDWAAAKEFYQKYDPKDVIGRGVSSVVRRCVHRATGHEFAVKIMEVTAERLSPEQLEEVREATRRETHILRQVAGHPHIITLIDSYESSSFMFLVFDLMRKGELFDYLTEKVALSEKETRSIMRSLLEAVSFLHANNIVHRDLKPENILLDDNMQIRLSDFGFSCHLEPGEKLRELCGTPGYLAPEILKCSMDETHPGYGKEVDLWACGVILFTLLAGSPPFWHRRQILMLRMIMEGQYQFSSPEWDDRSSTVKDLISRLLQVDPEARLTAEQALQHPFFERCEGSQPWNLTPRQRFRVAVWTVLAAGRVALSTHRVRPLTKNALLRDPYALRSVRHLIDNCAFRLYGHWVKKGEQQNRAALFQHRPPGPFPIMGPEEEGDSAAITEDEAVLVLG

[5] = molecular target: T3, panel of 255 wild-type kinases (Homo sapiens, UniProt Q96PF2); settings: read-out: %-inhibition at 1 µmol/L, TSSK2
T3 sequence (Q96PF2 1-358): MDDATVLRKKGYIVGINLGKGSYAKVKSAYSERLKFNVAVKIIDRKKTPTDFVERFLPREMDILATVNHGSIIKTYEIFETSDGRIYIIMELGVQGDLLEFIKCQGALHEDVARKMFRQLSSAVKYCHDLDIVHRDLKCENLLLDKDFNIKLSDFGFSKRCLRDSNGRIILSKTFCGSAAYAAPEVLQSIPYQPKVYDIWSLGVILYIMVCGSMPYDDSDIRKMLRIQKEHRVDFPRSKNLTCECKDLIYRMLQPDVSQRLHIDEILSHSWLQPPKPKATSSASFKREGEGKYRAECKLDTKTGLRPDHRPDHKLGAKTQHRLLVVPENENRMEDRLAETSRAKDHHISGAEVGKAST

[6] = molecular target: T4, panel of 255 wild-type kinases (Homo sapiens, UniProt P29320); settings: read-out: %-inhibition at 1 µmol/L, EPHA3
T4 sequence (P29320 21-983): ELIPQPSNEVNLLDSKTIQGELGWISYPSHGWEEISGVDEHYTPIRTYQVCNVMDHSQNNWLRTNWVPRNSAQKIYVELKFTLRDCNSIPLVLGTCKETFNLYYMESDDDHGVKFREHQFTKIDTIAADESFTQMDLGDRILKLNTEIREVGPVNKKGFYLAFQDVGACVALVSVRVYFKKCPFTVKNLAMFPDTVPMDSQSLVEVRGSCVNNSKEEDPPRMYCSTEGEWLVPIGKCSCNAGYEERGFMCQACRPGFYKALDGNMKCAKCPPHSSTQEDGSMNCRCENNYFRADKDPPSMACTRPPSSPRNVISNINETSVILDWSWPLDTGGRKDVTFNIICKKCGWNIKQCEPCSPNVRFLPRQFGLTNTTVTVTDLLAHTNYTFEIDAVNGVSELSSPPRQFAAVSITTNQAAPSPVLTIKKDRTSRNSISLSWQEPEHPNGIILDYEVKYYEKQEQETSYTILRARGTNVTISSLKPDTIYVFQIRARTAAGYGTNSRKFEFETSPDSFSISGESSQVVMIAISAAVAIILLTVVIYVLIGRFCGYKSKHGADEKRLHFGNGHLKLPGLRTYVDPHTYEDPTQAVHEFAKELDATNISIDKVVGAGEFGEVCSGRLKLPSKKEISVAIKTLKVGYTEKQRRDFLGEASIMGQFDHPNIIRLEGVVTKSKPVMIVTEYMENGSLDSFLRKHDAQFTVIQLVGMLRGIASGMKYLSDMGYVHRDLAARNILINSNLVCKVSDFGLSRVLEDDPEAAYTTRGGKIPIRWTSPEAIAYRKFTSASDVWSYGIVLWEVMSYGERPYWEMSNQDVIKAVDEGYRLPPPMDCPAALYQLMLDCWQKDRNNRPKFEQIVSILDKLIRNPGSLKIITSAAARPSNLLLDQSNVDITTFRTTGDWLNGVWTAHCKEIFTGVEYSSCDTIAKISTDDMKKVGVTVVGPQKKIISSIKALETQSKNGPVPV

[7] = molecular target: panel of 255 wild-type kinases (Homo sapiens, UniProt Q96RG2); settings: read-out: %-inhibition, PASK
[8] = molecular target: panel of 255 wild-type kinases (Homo sapiens, UniProt P05771); settings: read-out: %-inhibition at 1 µmol/L, PKCβ1
[9] = kinase HER2, 1 µmol/L single concentration
[10] = kinase JAK1, 1 µmol/L single concentration
[11] = kinase TEC, 1 µmol/L single concentration
[12] = kinase PHKG2, 1 µmol/L single concentration
[13] = kinase TSSK2, 1 µmol/L single concentration
[14] = kinase EPHA3, 1 µmol/L single concentration
[15] = PASK, 1 µmol/L single concentration
[16] = kinase PKCβ1, 1 µmol/L single concentration

SMILES	inhibition at 1 µM [1, 9] [%]	inhibition at 1 µM [2, 10] [%]	inhibition at 1 µM [3, 11] [%]	inhibition at 1 µM [4, 12] [%]	inhibition at 1 µM [5, 13] [%]	inhibition at 1 µM [6, 14] [%]	inhibition at 1 µM [7, 15] [%]	inhibition at 1 µM [8, 16] [%]	inhibition at 1 µM [1] [%]	inhibition at 1 µM [2] [%]	inhibition at 1 µM [3] [%]	inhibition at 1 µM [4] [%]	inhibition at 1 µM [5] [%]	inhibition at 1 µM [6] [%]	inhibition at 1 µM [7] [%]	inhibition at 1 µM [8] [%]
CCc1nc(C(N)=O)c(Nc2ccc(N3CCC(N4CCN(C)CC4)CC3)c(OC)c2)nc1NC1CCOCC1 [gilteritinib]	15	24	44	59	55	30	2.54	19								
CCN1C(=O)N(c2c(F)c(OC)cc(OC)c2F)Cc2cnc3[nH]c(CN4CCOCC4)cc3c21 [pemigatinib]	-4	-2.65	-1.55	8	-3.21	0.534	-5	0.544								
Cn1cc(-c2cc3c(N4CCN(c5ncc([C@@](C)(N)c6ccc(F)cc6)cn5)CC4)ncnn3c2)cn1 [avapritinib]	12	29	16	5.4	1.35	22	13	1.74								
CNC(=O)c1ccc(-c2cnc3ncc(Cc4ccc5ncccc5c4)n3n2)cc1F [capmatinib]									9	2.61	4	0.266	-3.31	-9	-5	1.2
C[C@H](Nc1ncnc2nc[nH]c12)c1cc2cccc(Cl)c2c(=O)n1-c1ccccc1 [duvelisib]	19	0.053	1.84	0.785	-1.37	0.475	-0.608	5								
